In patent US10190168B2, “Method for predicting a treatment response to a CRHR1 antagonist and/or a V1B antagonist in a patient with depressive and/or anxiety symptoms” (MAX-PLANCK-GESELLSCHAFT ZUR FÖRDERUNG DER WISSENSCHAFTEN …, priority 2013, dated 2019):

Columns and labels:
Cor26 CRH mice = experiment: REMS levels (EEG/EMG sleep recording) in CRH-overexpressing Cor26 CRH mice; conditions: 50 mg/kg/d via drinking water
Experimental: (§1) Experiments were conducted with two different mouse lines of excessive central CRH secretion and their respective control littermates (CL). Mice of the CRH-COE^CNS line are characterised by CRH-overexpression within the whole CNS, whereas mice of the Cor26 CRH line display a CRH-overexpression specific to CRH-ergic neurons of the CNS. Three different CRHR1 antagonists were tested. […] In all cases, animals were left to recover from EEG/EMG-electrode implantation for two weeks, after which two days of baseline recording were initiated. Treatment with CRH-R1 antagonist or respective vehicle control commenced thereafter for five consecutive days. Antagonists were applied through the drinking water at a daily dose of 50 mg/kg body weight. EEG and EMG recordings were manually scored as wake, non-REMS (NREMS), and REMS in four second epochs by an experienced evaluator.

[1] = test system: control littermates (CL) of Cor26 CRH mice; experiment: REMS levels (EEG/EMG sleep recording) in control littermates of the Cor26 CRH line; conditions: 50 mg/kg/d via drinking water
Experimental: as §1

[2] = test system: control littermates (CL) of CRH-COE^CNS mice; experiment: REMS activity (EEG/EMG sleep recording) in control littermates of the CRH-COE^CNS line; conditions: 50 mg/kg/d via drinking water
Experimental: as §1

CRH-COE^CNS mice = experiment: REMS activity (EEG/EMG sleep recording) in CRH-overexpressing CRH-COE^CNS mice; conditions: 50 mg/kg/d via drinking water; for REMS activity: treatment days vs baseline, effect beginning with treatment day two
Experimental: as §1

[3] = test system: mice overexpressing CRH in the forebrain; conditions: Kimura et al., Mol. Psychiatry 2010; cited from earlier work

| Compound | REMS levels (Cor26 CRH mice; 50 mg/kg/day) | REMS levels (Cor26 CRH mice; listed as CP-316311, 50 mg/kg/day) | REMS levels, area under the curve (AUC) within the light period (Cor26 CRH mice; baseline vs treatment day three, P=0.006) | REMS levels [1] | REMS activity [2] | REMS suppression relative to baseline REMS-levels of CL (CRH-COE^CNS mice) | treatment day of strongest suppression of REMS activity (CRH-COE^CNS mice) | REMS activity (CRH-COE^CNS mice; 50 mg/kg/day) | REMS activity (CRH-COE^CNS mice; listed as DMP696, 50 mg/kg/day) | REM enhancement [3] |
| --- | --- | --- | --- | --- | --- | --- | --- | --- | --- | --- |
| CCC(CC)Oc1cc(C)nc(Oc2c(C)cc(C)cc2C)c1C [CP-316,311] | apparently seemed weak | suppressed | significant decrease | no significant effect |  |  |  |  |  |  |
| COCC(COC)Nc1nc(C)nc2c(-c3ccc(Cl)cc3Cl)c(C)nn12 [DMP-696] |  |  |  |  | only a mild suppression of REMS | never exceeded baseline REMS-levels of CL | treatment day three | significant decrease in REMS activity | suppressed | could reverse the REM enhancement |
